From ChEMBL document CHEMBL1201862, “PubChem BioAssay data set” (2004)
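1) Cells in 96-well plates. 2) Compound, 48 h, 5 concentrations. 3) Linear interpolation between surrounding doses. 4) Unreached endpoint = highest concentration. GI50 marks 50% less growth.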 Active and inactive are the calls of the source. Cut-off read from the data, not from the text of the source: active = GI50 up to about 1.1 µM and inactive = higher.

Columns and labels:
Test in all cases: NCI-60 cell line screen, 48 h
HT-29 = test system: HT-29
A498 = test system: A498
UO-31 = test system: UO-31
HCT-116 = test system: HCT-116
SK-MEL-28 = test system: SK-MEL-28
IGROV-1 = test system: IGROV-1
MOLT-4 = test system: MOLT-4
SK-MEL-2 = test system: SK-MEL-2
TK-10 = test system: TK-10
NCI-H522 = test system: NCI-H522
SF-539 = test system: SF-539
UACC-257 = test system: UACC-257
SR = test system: SR
COLO 205 = test system: COLO 205
U-251 = test system: U-251
NCI-H460 = test system: NCI-H460
OVCAR-5 = test system: OVCAR-5
RXF 393 = test system: RXF 393

Structure (SMILES)	GI50 (HT-29)	GI50 (A498)	GI50 (UO-31)	GI50 (HCT-116)	GI50 (SK-MEL-28)	GI50 (IGROV-1)	GI50 (MOLT-4)	GI50 (SK-MEL-2)	GI50 (TK-10)	GI50 (NCI-H522)	GI50 (SF-539)	GI50 (UACC-257)	GI50 (SR)	GI50 (COLO 205)	GI50 (U-251)	GI50 (NCI-H460)	GI50 (OVCAR-5)	GI50 (RXF 393)
O=C(c1ccncc1)n1nc(-c2ccccc2)c(/N=N/c2ccccc2[N+](=O)[O-])c1-c1ccccc1	26.2 µM (inactive)	70.3 µM (inactive)	9.62 µM (inactive)	44.3 µM (inactive)	> 100 µM (inactive)	73.8 µM (inactive)	38.9 µM (inactive)	> 100 µM (inactive)	67.9 µM (inactive)	56 µM (inactive)	50.8 µM (inactive)	40.8 µM (inactive)	36.6 µM (inactive)	> 100 µM (inactive)				
C/C(CC(=O)Nc1cc(C)ccc1C)=N\NC(=O)c1ccncc1	> 100 µM (inactive)		> 100 µM (inactive)	> 100 µM (inactive)	> 100 µM (inactive)	> 100 µM (inactive)	> 100 µM (inactive)	> 100 µM (inactive)	> 100 µM (inactive)	78 µM (inactive)	> 100 µM (inactive)	> 100 µM (inactive)		> 100 µM (inactive)	> 100 µM (inactive)	> 100 µM (inactive)	> 100 µM (inactive)	> 100 µM (inactive)
C[N+](C)(C)CC(CC(=O)[O-])C1CC1 (stereo unspecified)	> 100 µM (inactive)	> 100 µM (inactive)	> 100 µM (inactive)		> 100 µM (inactive)	> 100 µM (inactive)	> 100 µM (inactive)	> 100 µM (inactive)	> 100 µM (inactive)	> 100 µM (inactive)	> 100 µM (inactive)	> 100 µM (inactive)		> 100 µM (inactive)	> 100 µM (inactive)	> 100 µM (inactive)	> 100 µM (inactive)	> 100 µM (inactive)
S=C(Nc1ccccc1)Nc1[nH]c(=S)sc1-c1nc2ccccc2[nH]1	> 100 µM (inactive)	> 100 µM (inactive)	> 100 µM (inactive)		73.5 µM (inactive)	94.2 µM (inactive)	> 100 µM (inactive)	38.4 µM (inactive)	40.1 µM (inactive)	62.4 µM (inactive)	28.6 µM (inactive)	> 100 µM (inactive)		> 100 µM (inactive)	80 µM (inactive)		> 100 µM (inactive)	> 100 µM (inactive)
Cc1ccc(NC(=O)C(=O)CC(=O)C2CCOC2=O)c(C)c1 (stereo unspecified)	> 100 µM (inactive)	> 100 µM (inactive)	> 100 µM (inactive)	> 100 µM (inactive)	> 100 µM (inactive)	> 100 µM (inactive)		> 100 µM (inactive)	> 100 µM (inactive)	> 100 µM (inactive)	> 100 µM (inactive)	> 100 µM (inactive)		> 100 µM (inactive)	> 100 µM (inactive)	> 100 µM (inactive)	> 100 µM (inactive)	> 100 µM (inactive)
COc1cc(C(O)C(=O)c2cnc3cc([N+](=O)[O-])ccc3n2)ccc1O (stereo unspecified)	> 100 µM (inactive)	> 100 µM (inactive)	> 100 µM (inactive)	> 100 µM (inactive)		> 100 µM (inactive)	> 100 µM (inactive)	> 100 µM (inactive)	> 100 µM (inactive)		> 100 µM (inactive)	> 100 µM (inactive)	> 100 µM (inactive)	> 100 µM (inactive)	> 100 µM (inactive)	> 100 µM (inactive)		64.1 µM (inactive)
C=C1C2CC(OC(C)=O)C3(C)C(c4ccoc4)OC(=O)[C@@H](O)[C@]13OC1C[C@H](OC(C)=O)C(C)(C)[C@H](C(O)C(=O)OC)[C@]12C (stereo partly specified)	> 100 µM (inactive)	> 100 µM (inactive)	> 100 µM (inactive)	> 100 µM (inactive)	> 100 µM (inactive)	> 100 µM (inactive)	> 100 µM (inactive)	> 100 µM (inactive)	> 100 µM (inactive)		> 100 µM (inactive)			> 100 µM (inactive)	> 100 µM (inactive)	> 100 µM (inactive)		
COc1cc(/C=C\c2ccc(Cl)cc2)cc(OC)c1OC	0.0459 µM (active)	0.171 µM (active)	0.593 µM (active)	0.0652 µM (active)	0.454 µM (active)	1.08 µM (active)	0.0762 µM (active)	0.245 µM (active)	38.9 µM (inactive)	0.111 µM (active)	0.147 µM (active)	0.804 µM (active)	0.0652 µM (active)	0.443 µM (active)	0.231 µM (active)	0.221 µM (active)	26.3 µM (inactive)	0.2 µM (active)
O=c1oc2c(O)c(O)cc3c(=O)oc4c(O)c(O)cc1c4c23 [ELLAGIC ACID]	> 10 µM (inactive)	21.4 µM (inactive)	39.7 µM (inactive)	92 µM (inactive)	> 10 µM (inactive)	45.4 µM (inactive)	> 10 µM (inactive)	78.2 µM (inactive)	75.2 µM (inactive)	24.1 µM (inactive)	> 10 µM (inactive)	> 10 µM (inactive)	71.1 µM (inactive)	> 10 µM (inactive)	27.9 µM (inactive)	53.5 µM (inactive)	> 10 µM (inactive)	> 10 µM (inactive)
